Experimental data reported in patent US7276519B2, “Thieno[3,2-b]pyridine-6-carbonitriles and thieno[2,3-b]pyridine-5-carbonitriles as protein kinase inhibitors” (Wyeth, priority 2002, dated 2007).
Values joined by “and” are separate entries in the source; they are usually repeats but may differ in a detail not shown here. Equal values may be shown once. Read-outs that look alike come from different tables or passages of the source.

Tests used:
[1] = system: Rat2 fibroblasts stably transformed with v-Src/Hu c-Src fusion gene; experiment: Anchorage independent Src-transformed fibroblast proliferation assay; format: cell-based, rat
Method: Anchorage Independent Src-Transformed Fibroblast Proliferation Assay Rat2 fibroblasts stably transformed with a plasmid containing a CMV promotor controlled v-Src/Hu c-Src fusion gene in which the catalytic domain of human c-Src was inserted in place of the v-Src catalytic domain in the v-Src gene are used for the measurement of src dependent suspension growth. […] Multiple entries for a given compound indicate that it was tested multiple times.

[2] = molecular target: T1, Rat2 fibroblasts stably transformed with v-Src/Hu Lck fusion gene (Homo sapiens, UniProt P06239, cells depend on it, form not given); experiment: Anchorage independent Lck-transformed fibroblast proliferation assay; format: cell-based, rat
T1 construct: Candidates are e.g. Schmidt-Ruppin A (P00524) or Prague C (P00526); The human Lck catalytic domain stands in place of the v-Src catalytic domain
T1 sequence (P06239 whole entry, change not shown, the tested form may be a part): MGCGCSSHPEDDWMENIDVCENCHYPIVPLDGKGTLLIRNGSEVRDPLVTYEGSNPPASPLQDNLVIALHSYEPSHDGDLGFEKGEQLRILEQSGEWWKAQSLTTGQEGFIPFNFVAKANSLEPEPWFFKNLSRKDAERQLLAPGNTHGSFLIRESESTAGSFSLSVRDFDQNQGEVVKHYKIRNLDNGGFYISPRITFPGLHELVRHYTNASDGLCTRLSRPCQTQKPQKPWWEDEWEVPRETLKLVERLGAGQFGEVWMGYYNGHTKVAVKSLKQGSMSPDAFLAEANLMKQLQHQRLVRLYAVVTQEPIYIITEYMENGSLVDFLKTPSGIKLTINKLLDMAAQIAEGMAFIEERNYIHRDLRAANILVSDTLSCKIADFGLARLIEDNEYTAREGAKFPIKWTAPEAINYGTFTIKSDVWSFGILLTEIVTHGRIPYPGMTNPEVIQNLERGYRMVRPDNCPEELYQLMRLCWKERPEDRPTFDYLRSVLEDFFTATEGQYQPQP
Method: Anchorage Independent Lck-Transformed Fibroblast Proliferation Assay
Rat2 fibroblasts stably transformed with a plasmid containing a CMV promotor controlled v-Src/Hu Lck fusion gene in which the catalytic domain of human Lck was inserted in place of the v-Src catalytic domain in the v-Src gene are used for the measurement of src dependent suspension growth. Ultra-low cluster plates (Costar # 3474) are seeded with 10,000 cells per well on Day 1. Compound is added in serial two-fold dilutions from 10 micromolar to 0.009 micromolar on Day 2 and MTS reagent (Promega) is added on Day 5 (100 microliters of MTS/medium mix+100 microliters of medium already on the cells and the absorbance is measured at 490 nm. The results are analyzed as follows to yield an IC50 for proliferation (micromolar units) as follow: % inhibition=(Abs490 nm sample−blank)/(Abs490 nm no cmpd control−blank)×100%. The results obtained for representative compounds of this invention are listed in Table 2. Multiple entries for a given compound indicate that it was tested multiple times.

[3] = Rattus norvegicus, Rat2, Table 3, read-out: Src Cells IC50 μM or % inhib at 10 μM (IC50 values)
[4] = Table 3, read-out: Src Cells IC50 μM or % inhib at 10 μM (IC50 values)
[5] = Table 3, read-out: Lck Cells IC50
[6] = Rattus norvegicus, Rat2, 120 h, Table 1, suspension growth, MTS readout Day 5, read-out: Src cells IC50
[7] = Table 2, suspension growth, MTS readout Day 5, read-out: Lck cells IC50
[8] = Table 1, suspension growth, MTS readout Day 5, read-out: Src cells IC50

Row | melting point | GI50 [2, 5] | GI50 [2, 7] | SMILES | IC50 [1, 3] [µM] | IC50 [1, 4] [µM] | IC50 [1, 6] [µM] | IC50 [1, 8] [µM] | inhibition at 10 µM ([1]; Rattus norvegicus, Rat2, Table 3, at 10 μM, read-out: Src Cells IC50 μM or % inhib at 10 μM (% values)) [%] | Src Cells IC50 μM or % inhib at 10 μM (% values) ([1]; Table 3, at 10 μM)
1 | 236 to 238 °C | 7.4 µM and 7.9 µM |  | COc1cc(Nc2c(C#N)cnc3cc(/C=C/c4ccccc4)sc23)c(Cl)cc1Cl [Example 64, 7-[(2,4-Dichloro-5-methoxyphenyl)amino]-2-[(E)-2-phenylvinyl]thieno[3,2-b]pyridine-6-carbonitrile] | 6.4 | 5.6 |  |  |  | 
2 | 189 to 190 °C |  | 0.14 µM | COc1cc(Nc2c(C#N)cnc3cc(-c4ccc(CN5CCN(CCO)CC5)cc4)sc23)c(Cl)cc1Cl [Example 17, 7-[(2,4-Dichloro-5-methoxyphenyl)amino]-2-(4-{[4-(2-hydroxyethyl)piperazin-1-yl]methyl}phenyl)thieno[3,2-b]pyridine-6-carbonitrile] |  |  | 0.37 |  |  | 
3 | 200 to 202 °C | 0.91 µM and 0.99 µM |  | COc1cc(Nc2c(C#N)cnc3cc(-c4ccc(CN(C)C)o4)sc23)c(Cl)cc1Cl [Example 76, 7-[(2,4-dichloro-5-methoxyphenyl)amino]-2-{5-[(dimethylamino)methyl]-2-furyl}thieno[3,2-b]pyridine-6-carbonitrile] | 4.9 | 2.6 |  |  |  | 
4 | 268 °C (dec.) | > 10 µM |  | COc1cc(Nc2c(C#N)cnc3c(-c4ccc(C=O)cc4)csc23)c(Cl)cc1Cl [Example 140, 7-[(2,4-Dichloro-5-methoxyphenyl)amino]-3-(4-formylphenyl)thieno[3,2-b]pyridine-6-carbonitrile] | 8.46 | 8.58 |  |  |  | 
5 | 228 to 229 °C |  | 32 µM | COc1cc(Nc2c(C#N)cnc3cc(Br)sc23)c(Cl)cc1Cl [Example 3, 2-Bromo-7-[(2,4-dichloro-5-methoxyphenyl)amino]-thieno[3,2-b]pyridine-6-carbonitrile] |  |  | 37 |  |  | 
6 | 234 to 235 °C |  | 0.27 µM and 0.32 µM | COc1cc(Nc2c(C#N)cnc3cc(-c4cnc(CN5CCN(C)CC5)n4C)sc23)c(Cl)cc1Cl [Example 59, 7-[(2,4-Dichloro-5-methoxyphenyl)amino]-2-{1-methyl-2-[(4-methylpiperazin-1-yl)methyl]-1H-imidazol-5-yl}thieno[3,2-b]pyridine-6-carbonitrile] |  |  | 1.21 | 2.29 |  | 
7 | 187 to 189 °C | 2.8 µM and 3 µM |  | COc1cc(Nc2c(C#N)cnc3cc(-c4ccc(C5OCCO5)o4)sc23)c(Cl)cc1Cl [Example 68, 7-[(2,4-dichloro-5-methoxyphenyl)amino]-2-[5-(1,3-dioxolan-2-yl)-2-furyl]thieno[3,2-b]pyridine-6-carbonitrile] | 6.1 | 6 |  |  |  | 
8 | 209 to 212 °C |  | 0.68 µM | COc1cc(Nc2c(C#N)cnc3cc(-c4csc(CN5CCOCC5)c4)sc23)c(Cl)cc1Cl [Example 39, 7-[(2,4-Dichloro-5-methoxyphenyl)amino]-2-[5-(morpholin-4-ylmethyl)thien-3-yl]thieno[3,2-b]pyridine-6-carbonitrile] |  |  | 0.85 |  |  | 
9 | 210 to 212 °C | 0.16 µM and 0.25 µM |  | COc1cc(Nc2c(C#N)cnc3cc(-c4ccc(CN(C)C)s4)sc23)c(Cl)cc1Cl [Example 88, 7-[(2,4-dichloro-5-methoxyphenyl)amino]-2-{5-[(dimethylamino)methyl]thien-2-yl}thieno[3,2-b]pyridine-6-carbonitrile] | 2.4 | 2.3 |  |  |  | 
10 | 215 to 217 °C | 1.9 µM and 2.2 µM |  | COc1cc(Nc2c(C#N)cnc3cc(-c4ccc(CN5CCN(C)CC5)o4)sc23)c(Cl)cc1Cl [Example 69, 7-[(2,4-dichloro-5-methoxyphenyl)amino]-2-{5-[(4-methylpiperazin-1-yl)methyl]-2-furyl}thieno[3,2-b]pyridine-6-carbonitrile] | 2.8 | 3.4 |  |  |  | 
11 | 225 to 227 °C | 4.5 µM |  | COc1cc(Nc2c(C#N)cnc3cc(-c4ccc(N5CCOCC5)nc4)sc23)c(Cl)cc1Cl [Example 109, 7-[(2,4-dichloro-5-methoxyphenyl)amino]-2-(6-morpholin-4-ylpyridin-3-yl)thieno[3,2-b]pyridine-6-carbonitrile] | > 10 |  |  |  |  | 
12 | 189 to 192 °C | 0.067 µM and 0.053 µM |  | COc1cc(Nc2c(C#N)cnc3cc(-c4coc(CN5CCN(C)CC5)c4)sc23)c(Cl)cc1Cl [Example 137, 7-[(2,4-dichloro-5-methoxyphenyl)amino]-2-{5-[(4-methylpiperazin-1-yl)methyl]-3-furyl}thieno[3,2-b]pyridine-6-carbonitrile] | 0.303 | 0.211 |  |  |  | 
13 | 213 to 217 °C | 1.9 µM and 1.7 µM |  | COc1cc(Nc2c(C#N)cnc3cc(-c4ccc(C5OCCO5)s4)sc23)c(Cl)cc1Cl [Example 77, 7-[(2,4-dichloro-5-methoxyphenyl)amino]-2-[5-(1,3-dioxolan-2-yl)thien-2-yl]thieno[3,2-b]pyridine-6-carbonitrile] | 2.4 | 1.5 |  |  |  | 
14 | 128 to 130 °C | 1 µM and 1.06 µM |  | COc1cc(Nc2c(C#N)cnc3cc(-c4ccc(CNCc5ccncc5)cc4)sc23)c(Cl)cc1Cl [Example 89, 7-[(2,4-dichloro-5-methoxyphenyl)amino]-2-(4-{[(pyridin-4-ylmethyl)amino]methyl}phenyl)thieno[3,2-b]pyridine-6-carbonitrile] | 1.5 | 1.21 |  |  |  | 
15 | 245 to 247 °C | > 10 µM |  | COc1cc(Nc2c(C#N)cnc3cc(-c4ccc(CN5CCN(c6ccccn6)CC5)cc4)sc23)c(Cl)cc1Cl [Example 112, 7-[(2,4-dichloro-5-methoxyphenyl)amino]-2-{4-[(4-pyridin-2-ylpiperazin-1-yl)methyl]phenyl}thieno[3,2-b]pyridine-6-carbonitrile] | > 10 | 5.78 |  |  |  | 
16 | 315 to 316 °C | > 10 µM |  | COc1cc(Nc2c(C#N)cnc3cc(/C=C/n4nccn4)sc23)c(Cl)cc1Cl [Example 66, 7-[(2,4-Dichloro-5-methoxyphenyl)amino]-2-[(E)-2-(2H-1,2,3-triazol-2-yl)vinyl]thieno[3,2-b]pyridine-6-carbonitrile] |  |  |  |  | 26 | 26%, 26%
17 | 189 to 191 °C |  | 0.048 µM | COc1cc(Nc2c(C#N)cnc3cc(-c4ccc(CN5CCN(C)CC5)cc4)sc23)cc(OC)c1OC [Example 58, 2-{4-[(4-Methylpiperazin-1-yl)methyl]phenyl}-7-[(3,4,5-trimethoxyphenyl)amino]thieno[3,2-b]pyridine-6-carbonitrile] |  |  | 0.165 | 0.245 |  | 
18 | 215 to 217 °C | 3.34 µM and 1.93 µM |  | COc1cc(Nc2c(C#N)cnc3cc(C#Cc4ccc(CN(C)C)cn4)sc23)c(Cl)cc1Cl [Example 100, 7-[(2,4-dichloro-5-methoxyphenyl)amino]-2-({5-[(dimethylamino)methyl]pyridin-2-yl}ethynyl)thieno[3,2-b]pyridine-6-carbonitrile] | > 10 |  |  |  |  | 
19 | 245 to 247 °C | 1.22 µM and 1.34 µM |  | CN1CCN(Cc2ccc(-c3cc4ncc(C#N)c(Nc5ccc(Cl)cc5Cl)c4s3)cc2)CC1 [Example 119, 7-[(2,4-dichlorophenyl)amino]-2-{4-[(4-methylpiperazin-1-yl)methyl]phenyl}thieno[3,2-b]pyridine-6-carbonitrile] |  |  |  |  |  | 
20 | 178 to 180 °C | 0.6 µM and 0.51 µM |  | COc1cc(Nc2c(C#N)cnc3cc(-c4cccc(CN5CCN(C)CC5)c4)sc23)c(Cl)cc1Cl [Example 74, 7-[(2,4-dichloro-5-methoxyphenyl)amino]-2-{3-[(4-methylpiperazin-1-yl)methyl]phenyl}thieno[3,2-b]pyridine-6-carbonitrile] |  |  |  |  |  | 
21 | 176 to 179 °C | 8.9 µM and > 10 µM |  | COc1cc(Nc2c(C#N)cnc3cc(-c4ccc(CN5CCN(c6ccccc6OC)CC5)cc4)sc23)c(Cl)cc1Cl [Example 120, 7-[(2,4-dichloro-5-methoxyphenyl)amino]-2-(4-{[4-(2-methoxyphenyl)piperazin-1-yl]methyl}phenyl)thieno[3,2-b]pyridine-6-carbonitrile] |  |  |  |  |  | 
22 | 224 to 226 °C |  | 0.17 µM and 0.18 µM and 0.13 µM | COc1cc(Nc2c(C#N)cnc3cc(-c4csc(CN5CCN(C)CC5)c4)sc23)c(Cl)cc1Cl [Example 38, 7-[(2,4-Dichloro-5-methoxyphenyl)amino]-2-{5-[(4-methylpiperazin-1-yl)methyl]thien-3-yl}thieno[3,2-b]pyridine-6-carbonitrile] |  |  |  |  |  | 
